According to ChEMBL document CHEMBL1201862, “PubChem BioAssay data set” (2004):
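Protocol summary: plate cells (96-well), add compound at 5 concentrations, incubate 48 h, interpolate endpoints linearly. At the GI50, growth is halved.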 Active and inactive are the calls of the source. Rule as the data show it: active = GI50 up to about 1.1 µM and inactive = higher.

Legend:
Assay in all cases: NCI anticancer screen, dose series, 48 h
NCI-H226 = system: NCI-H226
KM12 = system: KM12
NCI-H23 = system: NCI-H23
Malme-3M = system: Malme-3M
MCF7 = system: MCF7
SF-295 = system: SF-295
EKVX = system: EKVX
LOX IMVI = system: LOX IMVI
SR = system: SR
MDA-MB-231 = system: MDA-MB-231
SK-MEL-28 = system: SK-MEL-28
K562 = system: K562
SN12C = system: SN12C
IGROV-1 = system: IGROV-1
HOP-62 = system: HOP-62
CCRF-CEM = system: CCRF-CEM
SK-MEL-5 = system: SK-MEL-5
OVCAR-5 = system: OVCAR-5
HCC 2998 = system: HCC 2998
ACHN = system: ACHN

## Cn1c2ccccc2c2c3c(c4c5ccccc5n(C)c4c21)C(=O)NC3=O
NCI-H226
  GI50: 40.7 µM (inactive)
KM12
  GI50: 3.96 µM (inactive)
NCI-H23
  GI50: 15.1 µM (inactive)
Malme-3M
  GI50: 20.5 µM (inactive)
MCF7
  GI50: 37.8 µM (inactive)
SF-295
  GI50: 20.4 µM (inactive)
EKVX
  GI50: 10.9 µM (inactive)
LOX IMVI
  GI50: > 34.8 µM (inactive)
SR
  GI50: < 0.01 µM (active)
MDA-MB-231
  GI50: 13.4 µM (inactive)
SK-MEL-28
  GI50: > 65.2 µM (inactive)
K562
  GI50: > 54.6 µM (inactive)
SN12C
  GI50: > 37.9 µM (inactive)
IGROV-1
  GI50: 5.71 µM (inactive)
HOP-62
  GI50: 12.2 µM (inactive)
CCRF-CEM
  GI50: > 100 µM (inactive)
SK-MEL-5
  GI50: 20.7 µM (inactive)
OVCAR-5
  GI50: 72.8 µM (inactive)
HCC 2998
  GI50: > 33.7 µM (inactive)

## COc1ccc2c(c1)CCc1c-2n(CCN2CCCCC2)c2ccc(OC)cc12
ACHN
  GI50: > 100 µM (inactive)
NCI-H226
  GI50: 10.4 µM (inactive)
NCI-H23
  GI50: > 100 µM (inactive)
Malme-3M
  GI50: > 100 µM (inactive)
MCF7
  GI50: > 100 µM (inactive)
SF-295
  GI50: > 100 µM (inactive)
EKVX
  GI50: > 100 µM (inactive)
LOX IMVI
  GI50: > 100 µM (inactive)
SR
  GI50: > 100 µM (inactive)
MDA-MB-231
  GI50: > 100 µM (inactive)
SK-MEL-28
  GI50: > 100 µM (inactive)
K562
  GI50: 78.7 µM (inactive)
SN12C
  GI50: > 100 µM (inactive)
IGROV-1
  GI50: > 100 µM (inactive)
HOP-62
  GI50: > 100 µM (inactive)
CCRF-CEM
  GI50: > 100 µM (inactive)
SK-MEL-5
  GI50: > 100 µM (inactive)
OVCAR-5
  GI50: > 100 µM (inactive)
HCC 2998
  GI50: > 100 µM (inactive)

## CCOC(=O)c1c(-c2ccccc2)oc(=O)c(Cc2cccc3cccnc23)c1-c1ccccc1
ACHN
  GI50: > 10 µM (inactive)
NCI-H226
  GI50: > 10 µM (inactive)
KM12
  GI50: > 10 µM (inactive)
NCI-H23
  GI50: > 10 µM (inactive)
Malme-3M
  GI50: > 10 µM (inactive)
MCF7
  GI50: > 10 µM (inactive)
SF-295
  GI50: > 10 µM (inactive)
EKVX
  GI50: > 10 µM (inactive)
LOX IMVI
  GI50: > 10 µM (inactive)
SR
  GI50: > 10 µM (inactive)
MDA-MB-231
  GI50: > 10 µM (inactive)
SK-MEL-28
  GI50: > 10 µM (inactive)
K562
  GI50: > 10 µM (inactive)
SN12C
  GI50: > 10 µM (inactive)
IGROV-1
  GI50: > 10 µM (inactive)
HOP-62
  GI50: > 10 µM (inactive)
CCRF-CEM
  GI50: > 10 µM (inactive)
SK-MEL-5
  GI50: > 10 µM (inactive)
OVCAR-5
  GI50: > 10 µM (inactive)
HCC 2998
  GI50: > 10 µM (inactive)

## N#Cc1c(C#N)c(-c2ccco2)n(-c2ccccc2)c1N
ACHN
  GI50: > 100 µM (inactive)
NCI-H226
  GI50: 29.5 µM (inactive)
KM12
  GI50: > 100 µM (inactive)
NCI-H23
  GI50: > 100 µM (inactive)
Malme-3M
  GI50: > 100 µM (inactive)
MCF7
  GI50: 5.94 µM (inactive)
SF-295
  GI50: > 100 µM (inactive)
EKVX
  GI50: 45 µM (inactive)
LOX IMVI
  GI50: > 100 µM (inactive)
SR
  GI50: 98.2 µM (inactive)
MDA-MB-231
  GI50: 31.7 µM (inactive)
K562
  GI50: > 100 µM (inactive)
SN12C
  GI50: > 100 µM (inactive)
IGROV-1
  GI50: > 100 µM (inactive)
HOP-62
  GI50: > 100 µM (inactive)
CCRF-CEM
  GI50: > 100 µM (inactive)
SK-MEL-5
  GI50: > 100 µM (inactive)
OVCAR-5
  GI50: > 100 µM (inactive)
HCC 2998
  GI50: > 100 µM (inactive)
